The source made the active and inactive calls. No cut-off for these calls is given here.
Assays:
[1] = Inhibitory activity against (PDT22) Prephenate dehydratase; set-up: species or system Escherichia coli
[2] = Inhibitory activity against chorismate mutase; set-up: species or system Escherichia coli
Escherichia coli [3] = assay: Inhibitory activity against (PDT22) Prephenate dehydratase at 500 uM; No inhibition
Escherichia coli [4] = assay: Inhibitory activity against chorismate mutase; No inhibition
[5] = Inhibitory activity against Chorismate mutase; set-up: species or system Escherichia coli
Escherichia coli [6] = assay: Inhibitory activity against chorismate mutase at 500 uM; No inhibition
Escherichia coli [7] = assay: Inhibitory activity against (PDT22) Prephenate dehydratase at 500 uM

COc1cccc(C(=O)O)c1-c1ccccc1C(=O)O
IC50 [1]: 4 mM

O=C(O)c1ccc([N+](=O)[O-])cc1-c1c(C(=O)O)cccc1[N+](=O)[O-]
IC50 [1]: 0.75 mM | IC50 [2]: 1.15 mM

CC(=O)Nc1cccc(C(=O)O)c1-c1c(NC(C)=O)cccc1C(=O)O
inhibition (Escherichia coli [3]): inactive | inhibition (Escherichia coli [4]): inactive

Cc1cccc(C(=O)O)c1-c1c(C(=O)O)cccc1[N+](=O)[O-]
IC50 [1]: 1.3 mM | IC50 [2]: 0.73 mM

O=C(O)c1ccc([N+](=O)[O-])c(-c2c(C(=O)O)cccc2[N+](=O)[O-])c1
IC50 [1]: 0.55 mM | IC50 [2]: 1.35 mM

O=C(O)c1ccccc1-c1c(O)cccc1C(=O)O
IC50 [1]: 2.9 mM | IC50 [2]: 1 mM

COc1cccc(C(=O)O)c1-c1c(C(=O)O)cccc1[N+](=O)[O-]
IC50 [1]: 3 mM | IC50 [2]: 0.8 mM

O=C(O)c1cccc(C(=O)O)c1-c1c(C(=O)O)cccc1[N+](=O)[O-]
IC50 [1]: 1.7 mM | IC50 [2]: 0.45 mM

O=C(O)c1ccccc1-c1c(C(=O)O)cccc1[N+](=O)[O-]
IC50 [1]: 1.9 mM | IC50 [2]: 0.28 mM

O=C(O)c1cccc([N+](=O)[O-])c1-c1c(C(=O)O)cccc1[N+](=O)[O-]
IC50 [1]: 0.6 mM | IC50 [2]: 0.05 mM

O=C(O)c1cc(O)ccc1-c1c(C(=O)O)cccc1[N+](=O)[O-]
IC50 [1]: 0.95 mM | IC50 [2]: 0.35 mM

O=C(O)c1cc(C(=O)O)c(-c2ccccc2[N+](=O)[O-])c(C(=O)O)c1
IC50 [1]: 1.85 mM | IC50 [5]: 3 mM

O=C(O)c1ccccc1-c1ccccc1C(=O)O
inhibition (Escherichia coli [3]): inactive | inhibition (Escherichia coli [6]): inactive

O=C(O)c1cccc([N+](=O)[O-])c1-c1cccc(F)c1C(=O)O
IC50 [1]: 2.25 mM | IC50 [2]: 0.6 mM

O=C(O)c1cc(O)c(O)cc1-c1c(C(=O)O)cccc1[N+](=O)[O-]
IC50 [2]: 1 mM | inhibition (Escherichia coli [7]): < 25%
